According to PMC12693419, “Design, Synthesis, Biological Evaluation, and In Silico Studies of Novel Multitarget Cinnamic Acid Hybrids” (Molecules, 2025):

Tests used:
[1] = In vitro inhibition of linoleic acid lipid peroxidation (AAPH); conditions: 100 μM; anti-lipid peroxidation
Text: In the present study, the aim was to evaluate the anti-lipid peroxidation activities of the synthesized compounds 5a–i, 6a–i, 9a–i, and 11 and compare their efficacy to that of Trolox, a well-known antioxidant. Using the water-soluble compound 2,2′-azobis(2-amidinopropane) hydrochloride (AAPH), peroxyl radicals are generated through spontaneous thermal decomposition in vitro. This experimental setup imitated the lipid peroxidation processes occurring in cells due to radical activity allowing the investigation of the effectiveness of the tested compounds under conditions resembling cellular oxidative stress.
An in vitro assay was performed following previously established protocols. The compound 2,2′-Azobis(2-methylpropionamidine) dihydrochloride (AAPH) was used as a controlled source of thermally generated alkylperoxy free radicals. The formation of conjugated diene hydroperoxides through the oxidation of sodium linoleate in an aqueous dispersion at 37 °C was measured by monitoring absorbance at 234 nm. The results were compared with the reference compound, Trolox (93%) (Table 6).

[2] = biological target: T1, soybean lipoxygenase isoenzyme-1 (SLOX-1) (Glycine max, UniProt P08170); assay: In vitro inhibition of soybean lipoxygenase; assay type: biochemical; conditions: for LOX Inh. IC50: pH 9.0
T1 construct: purchased Merck and Sigma-Aldrich
T1 sequence (P08170 1-839): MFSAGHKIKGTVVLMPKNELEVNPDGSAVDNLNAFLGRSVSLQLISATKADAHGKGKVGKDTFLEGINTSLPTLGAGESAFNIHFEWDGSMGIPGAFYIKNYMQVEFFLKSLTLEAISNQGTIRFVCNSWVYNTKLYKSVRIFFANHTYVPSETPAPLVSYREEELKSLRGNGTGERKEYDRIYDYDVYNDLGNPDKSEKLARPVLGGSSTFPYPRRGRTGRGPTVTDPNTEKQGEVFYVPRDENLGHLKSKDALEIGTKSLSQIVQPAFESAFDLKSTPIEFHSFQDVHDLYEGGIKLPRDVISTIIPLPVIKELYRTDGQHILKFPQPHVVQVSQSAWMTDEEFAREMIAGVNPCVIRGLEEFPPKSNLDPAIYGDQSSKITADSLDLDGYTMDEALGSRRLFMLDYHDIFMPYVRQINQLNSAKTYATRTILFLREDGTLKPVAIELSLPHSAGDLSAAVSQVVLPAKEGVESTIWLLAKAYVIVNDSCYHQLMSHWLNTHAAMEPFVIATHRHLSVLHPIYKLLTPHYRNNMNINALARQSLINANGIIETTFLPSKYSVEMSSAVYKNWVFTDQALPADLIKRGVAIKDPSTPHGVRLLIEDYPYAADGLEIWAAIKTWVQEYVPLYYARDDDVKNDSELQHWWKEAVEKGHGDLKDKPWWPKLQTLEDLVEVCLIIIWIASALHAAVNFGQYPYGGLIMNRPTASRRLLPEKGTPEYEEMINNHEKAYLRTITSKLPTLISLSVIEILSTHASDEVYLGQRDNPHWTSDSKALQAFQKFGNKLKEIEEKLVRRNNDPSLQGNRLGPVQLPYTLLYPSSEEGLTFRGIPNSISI
Procedure: In vitro anti-LOX activities were evaluated using soybean lipoxygenase isoenzyme-1 (SLOX-1), a commonly used model for mammalian LOXs.
An in vitro study was conducted following a previously reported method. The tested compounds were dissolved in DMSO (100 µM) and incubated at room temperature with 0.1 mL of sodium linoleate as the substrate and 0.2 mL of soybean lipoxygenase solution in Tris-HCl buffer (pH 9.0).

[3] = In vitro determination of NO release with Griess reagent; conditions: 100 μM, L-cysteine, pH 7.4, 37 °C, 60 min
Text: This assay evaluates the ability of nitrate esters to release nitric oxide (NO). First, sodium nitroprusside (SNP) reacts with the thiol compound, cysteine, which serves as a reducing agent (Scheme 5). The thiol donates electrons, facilitating the breakdown of the nitroprusside complex. Afterwards, the reaction leads to the formation of intermediate complexes, such as nitrosothiol species and the decomposition of these intermediates results in the release of nitric oxide (NO). According to the literature, measurements are conducted both in the presence and absence of the thiol agent, cysteine. No significant difference was observed between the two experimental conditions, and the results were reproducible. Sodium nitroprusside (SNP) was used as the reference compound [65].
The compounds (from a 10 mM stock solution in DMSO, final concentration 100 μM) are added (20 μL) to each test tube. Then, 2 mL of phosphate buffer solution (pH 7.4) is added. L-cysteine, used as the thiol agent, is added to the mixture at a final concentration of 0.5 mM. The solution is incubated at 37 °C for 60 min, after which 1 mL is removed and mixed with 250 μL of Griess reagent (4 g sulfanilamide, 0.2 g N-(1-naphthyl)-ethylenediamine dihydrochloride, and 10 mL of H3PO4 solution, final volume adjusted to 100 mL). The mixture is allowed to stand for 10 min at room temperature, and the absorbance of the produced compound is measured at 540 nm. Sodium nitroprusside (SNP) is used as the reference compound. The results are presented as the release of NO2^− (% NO2^− (mol/mol)) induced by the compounds in the presence of L-cysteine (Table 6).

bovine serum albumin = biological target: T2, bovine serum albumin (Bos taurus, UniProt P02769); assay: In vitro inhibition of albumin denaturation; conditions: heat denaturation, 60 °C 10 min
T2 construct: bovine serum albumin solution (fraction V); purchased Merck and Sigma-Aldrich; host or cells: bovine serum (fraction V)
Procedure: The ability of a compound to inhibit the thermal denaturation of albumin is considered an indicator of anti-inflammatory activity. Heat exposure simulates conditions of cellular stress or inflammation, during which protein and tissue damage occur. Certain substances can protect proteins from denaturation upon heating by stabilizing their structure and preventing aggregation and precipitation.
Inhibition of albumin denaturation was measured following the reported method. In a test tube, 1 mL of bovine serum albumin solution (fraction V, 1% w/v in phosphate buffer, pH 7.4) and 100 μL of the test compound solution were added sequentially. The mixture was incubated at 37 °C for 15 min, followed by heating at 60 °C for 10 min. After cooling to room temperature, the absorbance was measured at 660 nm. DMSO was used as the blank, and the results were compared to acetylsalicylic acid, which served as the reference compound (Table 6).

HeLa cells = assay: MTT viability assay; assay type: cell-based; conditions: Homo sapiens; for EC50: 48 h
Procedure: (§1) HeLa, MCF-7, U251, U87, MDA-MB-435, and MDA-MB-231 cancer cell lines were maintained in incubators at 37 °C with 5% CO2 in DMEM medium supplemented with 10% (v/v) fetal bovine serum (FBS) and antibiotics/antimycotics. All cell lines used in this study originate from the Laboratory of Biochemistry, Department of Chemistry, Aristotle University of Thessaloniki. They are low-passage, mycoplasma-free cancer cell lines that have been extensively used over the past 25 years in numerous studies across various fields of cancer research, including drug cytotoxicity testing.
(§2) All cell lines tested were seeded in 96-well plates at a concentration of 6 × 10^3 cells per well, except HeLa, which were seeded at 3 × 10^3 cells per well. The day after, cells were exposed to increasing concentrations of the compounds for 48 h. Cell viability was determined using the 3-(4,5-dimethylthiazol-2-yl)-2,5-diphenyltetrazolium bromide (MTT) assay, a colorimetric assessment of cellular metabolic activity as described previously. Absorbance values from treated samples were normalized to those of untreated controls, which were assigned to a 100% viability value.

MCF-7 cells = assay: MTT viability assay; assay type: cell-based; conditions: Homo sapiens, MCF7, 48 h
Procedure: as §1, §2

ovine COX-2 = biological target: T3, ovine COX-2 (Ovis aries, UniProt P79208); assay: In vitro inhibition of ovine cyclooxygenase-2
T3 sequence (P79208 17-603): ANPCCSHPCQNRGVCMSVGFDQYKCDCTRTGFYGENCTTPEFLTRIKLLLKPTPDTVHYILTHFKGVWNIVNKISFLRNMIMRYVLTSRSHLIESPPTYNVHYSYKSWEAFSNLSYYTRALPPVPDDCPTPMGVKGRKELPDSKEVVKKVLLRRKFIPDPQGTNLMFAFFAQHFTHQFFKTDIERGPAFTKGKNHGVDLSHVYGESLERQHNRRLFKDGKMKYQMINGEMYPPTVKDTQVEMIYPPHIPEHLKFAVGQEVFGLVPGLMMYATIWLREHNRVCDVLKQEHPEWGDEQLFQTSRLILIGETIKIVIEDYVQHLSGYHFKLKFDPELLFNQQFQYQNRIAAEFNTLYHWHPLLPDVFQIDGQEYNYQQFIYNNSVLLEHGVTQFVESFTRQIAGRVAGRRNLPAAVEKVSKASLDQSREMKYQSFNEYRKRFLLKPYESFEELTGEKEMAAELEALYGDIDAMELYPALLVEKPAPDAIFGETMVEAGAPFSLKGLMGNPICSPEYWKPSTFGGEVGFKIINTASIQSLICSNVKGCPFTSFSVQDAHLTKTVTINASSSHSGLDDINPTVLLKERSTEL
Procedure: In order to prevent this in the in vitro experiment used for testing COX inhibition activity of the new molecules, a co-substrate like N,N,N′,N′-tetramethyl-p-phenylenediamine (TMPD) is included, as it undergoes co-oxidation by PGG2. The oxidized TMPD has a maximum absorbance at 590 nm. […] To ensure maximum enzyme activity, heme is added to the reaction mixture during the in vitro assay for ovine COX-2 inhibition and COX-1 inhibition [63].
The in vitro COX-2 inhibitory activity was assessed using arachidonic acid (AA) as a substrate and N,N,N′,N′-tetramethyl-p-phenylenediamine (TMPD) as a co-substrate in a Tris-HCl buffer (pH 8.5), following the reported method [89]. To the test tube, 10 µL of the compound dissolved in DMSO was added to a mixture containing 730 µL of Tris-HCl buffer (pH 8.5), 50 µL of heme, 10 µL of COX-2 enzyme, and 100 µL of TMPD. The absorbance was measured at 590 nm. […] A blank determination was conducted as a negative control.

COX-1 = biological target: T4, COX-1 (Homo sapiens, UniProt P23219); assay: In vitro inhibition of COX-1; assay type: biochemical
T4 construct: purchased Merck and Sigma-Aldrich
Text: Enzyme inactivation can occur due to the accumulation of hydroperoxides formed from arachidonic acid or other fatty acid substrates. In order to prevent this in the in vitro experiment used for testing COX inhibition activity of the new molecules, a co-substrate like N,N,N′,N′-tetramethyl-p-phenylenediamine (TMPD) is included, as it undergoes co-oxidation by PGG2. The oxidized TMPD has a maximum absorbance at 590 nm. COX enzymes also depend on heme (Fe^3+-protoporphyrin IX) as a cofactor, which can dissociate during purification. To ensure maximum enzyme activity, heme is added to the reaction mixture during the in vitro assay for ovine COX-2 inhibition and COX-1 inhibition.
Cyclooxygenase (COX) activity was measured using arachidonic acid (AA) as the substrate and N,N,N′,N′-tetramethylphenylenediamine (TMPD) as the co-substrate following the reported method. […] The substrate oxidation was monitored at room temperature by recording the increase in absorbance at 590 nm. Absorbance due to the spontaneous oxidation of TMPD was subtracted from the initial oxidation rate observed in the presence of AA. The inhibitory activity of the test compounds at a concentration of 100 μM was evaluated after a 6-min pre-incubation with the enzyme in the presence of heme and TMPD.

T2 sequence (P02769 25-607): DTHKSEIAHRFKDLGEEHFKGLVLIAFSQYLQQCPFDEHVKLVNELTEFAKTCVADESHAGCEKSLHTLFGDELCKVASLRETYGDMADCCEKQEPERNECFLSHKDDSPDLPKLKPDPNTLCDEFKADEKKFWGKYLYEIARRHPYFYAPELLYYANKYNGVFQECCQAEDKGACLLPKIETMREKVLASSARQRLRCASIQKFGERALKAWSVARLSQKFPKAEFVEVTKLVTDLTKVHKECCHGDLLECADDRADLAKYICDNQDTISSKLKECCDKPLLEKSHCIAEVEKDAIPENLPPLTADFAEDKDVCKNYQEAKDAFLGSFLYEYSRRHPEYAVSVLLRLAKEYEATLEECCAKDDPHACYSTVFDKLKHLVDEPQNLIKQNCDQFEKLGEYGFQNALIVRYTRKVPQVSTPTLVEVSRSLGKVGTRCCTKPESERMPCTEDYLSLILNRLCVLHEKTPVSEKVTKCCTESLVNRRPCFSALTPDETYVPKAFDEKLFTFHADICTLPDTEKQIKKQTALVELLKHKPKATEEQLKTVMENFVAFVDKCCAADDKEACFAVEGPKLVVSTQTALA
T4 sequence (P23219 24-599): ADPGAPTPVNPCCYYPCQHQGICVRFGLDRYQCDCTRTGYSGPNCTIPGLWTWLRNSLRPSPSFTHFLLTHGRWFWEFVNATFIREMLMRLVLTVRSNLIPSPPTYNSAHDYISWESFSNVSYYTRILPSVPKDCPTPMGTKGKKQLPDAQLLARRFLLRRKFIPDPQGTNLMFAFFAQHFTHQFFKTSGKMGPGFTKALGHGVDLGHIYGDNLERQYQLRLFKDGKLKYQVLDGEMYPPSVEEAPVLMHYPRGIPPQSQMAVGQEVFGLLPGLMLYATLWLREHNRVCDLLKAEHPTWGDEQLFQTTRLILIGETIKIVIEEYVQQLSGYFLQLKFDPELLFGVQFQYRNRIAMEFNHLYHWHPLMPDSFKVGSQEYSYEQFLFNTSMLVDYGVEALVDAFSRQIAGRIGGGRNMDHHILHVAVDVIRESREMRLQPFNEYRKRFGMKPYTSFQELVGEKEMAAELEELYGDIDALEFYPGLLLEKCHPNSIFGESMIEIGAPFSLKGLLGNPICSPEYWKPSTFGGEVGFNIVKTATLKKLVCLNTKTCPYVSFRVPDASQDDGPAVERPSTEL

Row | SMILES | AAPH Inh. at 100 μΜ [1] | IC50 ([2]; pH 9.0, read-out: LOX Inh. IC50) [µM] | %NO2^− Release mol/mol at 100 μΜ [3] [%] | Albumin (inhibition of albumin denaturation) (bovine serum albumin) | EC50 (HeLa cells) [µM] | EC50 (MCF-7 cells) [µM] | COX-2 Inh. IC50 (ovine COX-2) | LOX Inh. IC50 [2] | inhibition at 100 µM (COX-1) [%] | IC50 (ovine COX-2) [µM] | IC50 (HeLa cells; 48 h of exposure, read-out: IC50 in HeLa cells (positive control)) [µM]
1 | O=C(OCc1c(-c2ccccc2)no[n+]1[O-])/C(=C/c1ccccc1)c1ccccc1 [Compound 9g, (E)-3-(((2,3-Diphenylacryloyl)oxy)methyl)-4-phenyl-1,2,5-oxadiazole 2-oxide] | 90% | 55.5 | 3 | no | 46.6 | > 100 | no | – | – | – | –
2 | O=C(OCc1c(-c2ccccc2)no[n+]1[O-])/C(=C/c1cccs1)c1ccccc1 [Compound 9i, (E)-4-Phenyl-3-(((2-phenyl-3-(thiophen-2-yl)acryloyl)oxy)methyl)-1,2,5-oxadiazole 2-oxide] | no | – | – | no | 56 | > 100 | – | no | 49 | 70 | –
3 | O=C(C=Cc1ccccc1)OCCOc1no[n+]([O-])c1S(=O)(=O)c1ccccc1 [Compound 11, 4-(2-(Cinnamoyloxy)ethoxy)-3-(phenylsulfonyl)-1,2,5-oxadiazole 2-oxide] | 90% | – | 11 | no | – | – | no | complete loss of activity and no | – | – | –
4 | COc1cccc2c1C(=O)c1c(O)c3c(c(O)c1C2=O)C[C@@](O)(C(=O)CO)C[C@@H]3O[C@H]1C[C@H](N)[C@H](O)[C@H](C)O1 [doxorubicin, reference compound] | – | – | – | – | – | – | – | – | – | – | ~0.5
